The assay concerns Gram-negative Escherichia coli BW25113. The assay is described as follows: Antibacterial testing of coated substrates, CFU plate counting. The conditions noted are these: relative to untreated substrate; for Bacteria Loss/Log10 Reduction E. coli (Gram-negative): coated PET film, 4 h at 30 °C, mean ± standard deviation; for Log10 Reduction E. coli: plasma poly(4-vinylaniline) series, title: polypropylene film, text: PET substrates, average ± standard deviation.

The structures appear in SMILES notation.

Experimental: The prepared substrates with their respective coatings were subsequently tested for their antibacterial qualities against representative species of Gram-negative and Gram-positive bacteria. Gram-negative Escherichia coli BW25113 (CGSC 7636; rrnB3 ΔlacZ4787 hsdR514 Δ(araBAD)567 Δ(rhaBAD)568 rph-1) and Gram-positive Staphylococcus aureus (FDA209P, an MSSA strain; ATCC 6538P) bacteria cultures were prepared using autoclaved (Autoclave Vario 1528, Dixons Ltd.) Luria-Bertani broth media (LB; L3022, Sigma-Aldrich Ltd., 2% w/v in Milli-Q® grade water). A 5 ml bacterial culture was grown from a single colony for 16 h at 37° C., and then 50 μL used to inoculate a sterile polystyrene cuvette (Catalogue No. 67.742, Sarstedt AG) containing 1 mL of LB Broth. The cuvette was covered with Parafilm (Cole-Parmer Ltd.) and then placed inside a shaking incubator (model Stuart Orbital Incubator S1500, Cole-Parmer Ltd.) set at 37° C. and 120 rpm. An optical density OD600nm=0.4 was verified using a UV-Vis spectrophotometer (model Jenway 6300, Cole-Parmer Ltd.) to obtain bacteria at the mid-log phase of growth.
Uncoated control samples were washed in absolute ethanol for 15 minutes and then dried under vacuum in order to make sure they were sterile and clean. Sterile microtubes (1.5 mL, Sarstedt AG) were loaded with the untreated, or coated substrates. Next, 100 μL of the prepared bacterial culture was placed onto each substrate (so that the microorganisms could interact with one side of the surface), and left to incubate (model Bacterial Incubator 250, LMS Ltd.) for 4 hours at 30° C. Next, 900 μL of autoclaved Luria-Bertani broth media was pipetted into each microtube and vortexed (model Vortex-Genie 2, Scientific Industries Inc.) in order to recover the bacteria as a 10-fold dilution (10^−1). Further ten-fold serial dilutions were undertaken to provide 10^−2, 10^−3, 10^−4, 10^−5 and 10^−6 samples. Colony-forming unit (CFU) plate counting was performed by placing 10 μL drops from each diluted sample onto autoclaved Luria-Bertani Agar solid plates (EZMix™ powder, dust free, fast dissolving fermentation medium, L7533, Sigma-Aldrich Ltd.) and incubated (model Bacterial Incubator 250, LMS Ltd.) for 16 hours at 30° C. The number of colonies visible at each dilution were then counted. All tests were performed in triplicate.
Gram-negative Escherichia coli BW25113 (CGSC 7636; rrnB3 ΔlacZ4787 hsdR514 Δ(araBAD)567 Δ(rhaBAD)568 rph-1) and Gram-positive Staphylococcus aureus (FDA209P, an MSSA strain; ATCC 6538P) bacteria cultures were prepared using autoclaved (Autoclave Vario 1528, Dixons Ltd.) Luria-Bertani broth media (LB; L3022, Sigma-Aldrich Ltd., 2% w/v in grade water). A 5 ml bacterial culture was grown from a single colony for 16 h at 37° C., and then 50 μL used to inoculate a sterile polystyrene cuvette (Part No. 67.742, Sarstedt AG) containing 1 mL of LB Broth. The cuvette was covered with Parafilm (Cole-Parmer Ltd.) and then placed inside a shaking incubator (model Stuart Orbital Incubator S1500, Cole-Parmer Ltd.) set at 37° C. and 120 rpm to allow the bacteria to grow until an optical density OD600nm=0.4 was measured using a UV-Vis spectrophotometer (model Jenway 6300, Cole-Parmer Ltd.) which corresponded to the mid-log phase growth of bacteria.
Antibacterial testing was performed within 24 h of fabricating the coatings. Uncoated control samples were cleaned and sterilized by washing in absolute ethanol for 15 min and drying under vacuum. Each uncoated or coated substrate piece was placed aseptically inside a sterile microtube (1.5 mL, Sarstedt AG) so that the microorganisms could interact with one side of the surface. Next, 100 μL of the prepared bacterial culture was pipetted onto each substrate. In practice, the porous substrates absorbed the liquid so that the entire 15 mm×15 mm area of the samples was permeated by the bacterial suspension.

As to `O=C(OC[C@H]1O[C@@H](OC(=O)c2cc(O)c(O)c(OC(=O)c3cc(O)c(O)c(O)c3)c2)[C@H](OC(=O)c2cc(O)c(O)c(OC(=O)c3cc(O)c(O)c(O)c3)c2)[C@@H](OC(=O)c2cc(O)c(O)c(OC(=O)c3cc(O)c(O)c(O)c3)c2)[C@@H]1OC(=O)c1cc(O)c(O)c(OC(=O)c2cc(O)c(O)c(O)c2)c1)c1cc(O)c(O)c(OC(=O)c2cc(O)c(O)c(O)c2)c1` [Tannic Acid, tannic acid], the “Bacteria Loss/Log10 Reduction E. coli (Gram-negative)” value (“Bacteria Loss/Log10 Reduction E. coli” for short) is 0.00 Log10 Reduction. Besides, where the note is “listed as Tannic acid-only”, the “Bacteria Loss/Log10 Reduction E. coli” value was “no antibacterial activity”.
For `O=C/C=C/c1ccccc1` [Cinnamaldehyde, trans-cinnamaldehyde], the “Bacteria Loss/Log10 Reduction E. coli” value was 0.12 ± 0.07 Log10 Reduction. In addition, the “Bacteria Loss/Log10 Reduction E. coli” value (listed as cinnamaldehyde) is “very small antibacterial effect”. Moreover, under “listed as Cinnamaldehyde-only”, the “Log10 Reduction E. coli” value amounted to 0.12 ± 0.07 Log10 Reduction. Further, the “Log10 Reduction E. coli” value (listed as cinnamaldehyde-only) was “very small effect”.
